Test results published in ChEMBL document CHEMBL4330117, “Synthesis, biological evaluation and molecular docking of benzimidazole grafted benzsulfamide-containing pyrazole ring derivatives as novel tubulin polymerization inhibitors” (Bioorg Med Chem, 2019).

Legend:
HepG2 = assay: Antiproliferative activity against human HepG2 cells after 24 hrs by MTT assay; type: functional, cell-based; details: HepG2, 24 h
A549 = assay: Antiproliferative activity against human A549 cells after 24 hrs by MTT assay; type: functional, cell-based; details: A549, 24 h
MCF7 = assay: Antiproliferative activity against human MCF7 cells after 24 hrs by MTT assay; type: functional, cell-based; details: MCF7, 24 h
HeLa = assay: Antiproliferative activity against human HeLa cells after 24 hrs by MTT assay; type: functional, cell-based
[1] = Cytotoxicity against HEK293T cells after 24 hrs by MTT assay; type: cell-based, HEK-293T; details: human
Tubulin (Bos taurus) [2] = biological target: T1, Tubulin (Bos taurus) (UniProt Q6B856+Q862L2+Q862F3); assay: Inhibition of vinblastine binding to bovine brain tubulin at 5 uM
Tubulin (Bos taurus) [3] = biological target: T1, Tubulin (Bos taurus); assay: Inhibition of [3H]colchicine binding to bovine brain tubulin at 5 uM
[4] = Cytotoxicity against mouse primary hepatocytes after 24 hrs by MTT assay; type: cell-based, Hepatocyte

Row | SMILES | IC50 (HepG2) [µM] | IC50 (A549) [µM] | IC50 (MCF7) [µM] | IC50 (HeLa) [µM] | CC50 at 24 h [1] [µM] | inhibition (Tubulin (Bos taurus) [2]) [%] | inhibition (Tubulin (Bos taurus) [3]) [%] | CC50 at 24 h [4] [µM]
1 | Cc1ccc(-c2nn(-c3ccccc3)cc2-c2nc3ccccc3n2S(=O)(=O)c2ccc(Br)cc2)cc1 | 3.04 | 1.86 | 3.16 | 2.34 | 159 | -0.38 to 1.4 | 48 | > 300
2 | Cc1ccc(-c2nn(-c3ccccc3)cc2-c2nc3ccccc3n2S(=O)(=O)c2ccc(C(F)(F)F)cc2)cc1 | 1.93 | 1.46 | 2.34 | 1.52 | 182 | 0.21 | 55 | 89.3
3 | O=S(=O)(c1ccccc1)n1c(-c2cn(-c3ccccc3)nc2-c2ccc(F)cc2)nc2ccccc21 | 0.72 | 0.55 | 0.69 | 0.68 | 96.3 | 0.05 | 62 | 231
4 | O=S(=O)(c1ccc(C(F)(F)F)cc1)n1c(-c2cn(-c3ccccc3)nc2-c2ccc(F)cc2)nc2ccccc21 | 1.68 | 1.28 | 1.58 | 1.43 | 241 | 0.51 | 50 | 55.3
5 | Cc1ccc(-c2nn(-c3ccccc3)cc2-c2nc3ccccc3n2S(=O)(=O)c2ccc(C)cc2)cc1 | 0.52 | 0.46 | 0.57 | 0.48 | 79.3 | 0.18 | 66 | 102
6 | COc1cc2c(c(OC)c1OC)-c1ccc(OC)c(=O)cc1[C@@H](NC(C)=O)CC2 [COLCHICINE] | 0.42 | 0.22 | 0.44 | 0.36 | 129 | – | – | 153
7 | O=S(=O)(c1ccc(Br)cc1)n1c(-c2cn(-c3ccccc3)nc2-c2ccc(C(F)(F)F)cc2)nc2ccccc21 | 2.16 | 1.69 | 2.47 | 1.86 | 185 | -0.07 to 2.1 | 52 | 167
8 | O=S(=O)(c1ccccc1)n1c(-c2cn(-c3ccccc3)nc2-c2ccc(C(F)(F)F)cc2)nc2ccccc21 | 0.59 | 0.48 | 0.63 | 0.56 | 128 | 0.52 | 61 | 186
9 | Cc1ccc(-c2nn(-c3ccccc3)cc2-c2nc3ccccc3n2S(=O)(=O)c2ccccc2)cc1 | 0.96 | 0.76 | 0.83 | 0.82 | 138 | 0.21 | 74 | 189
10 | Cc1ccc(-c2nn(-c3ccccc3)cc2-c2nc3ccccc3n2S(=O)(=O)c2ccc(Cl)cc2)cc1 | 5.52 | 3.55 | 5.93 | 4.06 | 167 | 0.24 | 38 | 216
11 | O=S(=O)(c1ccc(F)cc1)n1c(-c2cn(-c3ccccc3)nc2-c2ccc(C(F)(F)F)cc2)nc2ccccc21 | 2.73 | 1.74 | 3.12 | 2.19 | 157 | 0.65 | 54 | 83.3
12 | Cc1ccc(C)c(S(=O)(=O)n2c(-c3cn(-c4ccccc4)nc3-c3ccc(F)cc3)nc3ccccc32)c1 | 0.41 | 0.2 | 0.43 | 0.32 | 54.2 | 0.62 | 88 | 122
13 | COc1ccc(S(=O)(=O)n2c(-c3cn(-c4ccccc4)nc3-c3ccc(F)cc3)nc3ccccc32)cc1 | 0.47 | 0.35 | 0.53 | 0.39 | 37.3 | 2.98 | 77 | 105
14 | O=S(=O)(c1ccc(Cl)cc1)n1c(-c2cn(-c3ccccc3)nc2-c2ccc(C(F)(F)F)cc2)nc2ccccc21 | 3.93 | 2.56 | 4.32 | 3.06 | 75.3 | 0.73 | 40 | 173
15 | COc1ccc(S(=O)(=O)n2c(-c3cn(-c4ccccc4)nc3-c3ccc(C(F)(F)F)cc3)nc3ccccc32)cc1 | 0.37 | 0.17 | 0.42 | 0.25 | > 300 | 0.03 | 85 | 87.4
16 | O=S(=O)(c1ccc(Cl)cc1)n1c(-c2cn(-c3ccccc3)nc2-c2ccc(F)cc2)nc2ccccc21 | 4.23 | 3.17 | 4.96 | 3.45 | 93.1 | -2.09 to 2.7 | 48 | 231
17 | O=S(=O)(c1ccc(Br)cc1)n1c(-c2cn(-c3ccccc3)nc2-c2ccc(F)cc2)nc2ccccc21 | 2.55 | 1.72 | 2.63 | 2.04 | 239 | 3.02 | 51 | > 300
18 | O=S(=O)(c1ccc(C(F)(F)F)cc1)n1c(-c2cn(-c3ccccc3)nc2-c2ccc(C(F)(F)F)cc2)nc2ccccc21 | 1.12 | 0.86 | 1.24 | 0.97 | 63.2 | 0.05 | 54 | 137
19 | FC(F)(F)c1ccc(-c2nn(-c3ccccc3)cc2-c2nc3ccccc3[nH]2)cc1 | 6.03 | 3.62 | 6.33 | 4.67 | 167 | -0.03 to 2.1 | 44 | 159
20 | O=[N+]([O-])c1ccc(S(=O)(=O)n2c(-c3cn(-c4ccccc4)nc3-c3ccc(C(F)(F)F)cc3)nc3ccccc32)cc1 | 1.07 | 0.79 | 1.13 | 0.95 | 163 | 0.14 | 63 | 178
21 | Cc1ccc(-c2nn(-c3ccccc3)cc2-c2nc3ccccc3[nH]2)cc1 | 6.26 | 4.01 | 7.26 | 4.95 | 187 | 0.05 | 40 | > 300
22 | O=S(=O)(c1ccc(F)cc1)n1c(-c2cn(-c3ccccc3)nc2-c2ccc(F)cc2)nc2ccccc21 | 3.52 | 2.37 | 3.67 | 2.44 | 218 | 1.32 | 48 | 174
23 | Cc1ccc(-c2nn(-c3ccccc3)cc2-c2nc3ccccc3n2S(=O)(=O)c2ccc(F)cc2)cc1 | 5.06 | 3.24 | 5.27 | 3.67 | 128 | 0.07 | 53 | 167
